Measurements reported in patent US20230293535A1, “ERBB/BTK INHIBITORS” (Dizal (Jiangsu) Pharmaceutical Co., Ltd., priority 2018, published 2023).
Structures can show the parent of a compound that is named as a salt. Where two headings read alike, the source gives them in different places.

What was measured:
Format in all cases: cell-based
[1] = test system: DB cells; assay: BTK (wt) cell proliferation, DB (CellTiter-Glo, 72 h); settings: Homo sapiens, DB, read-out: Non-BCR activated DB GI50;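 note: DB cells in 384-well plates given a dilution series of compound, viable cells read by ATP luminescence, growth expressed versus DMSO control after subtracting a time-zero plate reading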
[2] = test system: Her2 exon 20 insertion YVMA transduced NIH-3T3 cell line; assay: Cell proliferation, Her2 YVMAins NIH-3T3 (CellTiter-Glo, 72 h); settings: Mus musculus, NIH3T3, 72 h;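 note: viable cells quantified by ATP luminescence, growth over a day-zero baseline plate expressed as percent of DMSO control growth, compound dilution series in 10% FBS medium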
[3] = test system: NCI-H1975 EGFR L858R/T790M cells; assay: Cell proliferation, NCI-H1975 EGFR L858R/T790M (CellTiter-Glo, 72 h); settings: Homo sapiens, NCI-H1975, 72 h;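 note: viable cells quantified by luciferase-based ATP luminescence, proliferation expressed relative to DMSO-treated wells (100%) after subtracting a parallel plate read at the time of dosing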
Protocol: (§1) WT or mutant cells were seeded in 384 well plates at appropriate concentrations with corresponding growth media supplemented with 10% FBS, for each experiment, identical plates were prepared in duplicates, and the plates were incubated overnight. On the next day, one of each duplicated plates was dosed with tested compounds at a series of concentrations, and another one of the duplicated plate was analysied for G0 value. The dosed plates were incubate for another 72 h at 37° C. with 5% CO2 and the number of viable cells in each well of the G0 plates or the dosed plates were measured by CellTiter-Glo® Luminescent Cell Viability Assay (Promega). This assay is a luminescent method for determining the number viable cells through measurement of cellular ATP concentration by detection of luciferase activity. Detection reagents (15 µl) was dispensed into per well, and the plates were incubate for 30 min at room temperature. Then, the luminescence in each well was measured using the Envision plate reader (PerkinElmer). The percentage of proliferation was calculated based on the formula: %Proliferation= 100 × (G3 value of sample well-Go value)/(G3 value of DMSO control-Go value).

[4] = test system: Ba/F3 EGFR ASV ins cells; assay: Cell proliferation, Ba/F3 EGFR ASV ins (CellTiter-Glo, 72 h); settings: Ba/F3 EGFR, 72 h;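 note: IL3-independent Ba/F3 cells transduced with EGFR V769_D770insASV, cellular ATP luminescence after compound exposure, growth relative to DMSO control with the day-0 baseline reading subtracted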
[5] = test system: TMD-8 cells; assay: BTK (wt) cell proliferation, TMD-8 (CellTiter-Glo, 72 h); settings: Homo sapiens, TMD8, 72 h, read-out: BTK WT TMD-8 GI50;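 note: viable cells quantified by ATP-based luminescence, proliferation expressed as percent of DMSO control after subtracting a time-zero baseline plate read at dosing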
[6] = test system: Ba/F3 EGFR NPH ins cells; assay: Cell proliferation, Ba/F3 EGFR NPH ins (CellTiter-Glo, 72 h); settings: Ba/F3 EGFR, 72 h;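 note: IL3-independent cells carrying constitutively phosphorylated EGFR, compound dilution series, viable cells quantified by ATP luminescence, growth relative to DMSO wells after subtracting pre-dosing (day 0) baseline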
Protocol: Similar to recombinant human EGFR exon 20 H769_V770insASV Ba/F3 cell line, the recombinant human EGFR exon 20 H773_V774insNPH Ba/F3 cell line also expresses constitutively phosphorylated EGFR protein and proliferates in the absence of IL3, which could be used for in vitro PD and anti-proliferation assays.
as §1

[7] = test system: OCI-LY-10 cells; assay: BTK (wt) cell proliferation, OCI-LY-10 (CellTiter-Glo, 72 h); settings: Homo sapiens, OCI-Ly10, 72 h, read-out: BTK WT OCI-LY-10 GI50;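 note: viable cells quantified via cellular ATP luminescence, proliferation given as percent of DMSO control after subtracting a duplicate plate read at time of dosing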
[8] = test system: Ri-1 cells; assay: BTK (wt) cell proliferation, Ri-1 (CellTiter-Glo, 72 h); settings: Ri-1, 72 h, read-out: BTK WT Ri-1 GI50;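 note: viable cells quantified as cellular ATP luminescence, proliferation normalized to a time-zero plate and the DMSO control, compounds tested across a dilution series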
Protocol: OCI-LY-10 at 3,750 cells/well, TMD-8 and Ri-1 at 2,000 cells/well, and DB at 1,250 cells/well, respectively, were sorted into 384-well plates in RPMI1640 medium with 10% FBS. After overnight incubation, all cells were incubated with compound at a series of concentrations. Meanwhile, a duplicated plate of each cell line was prepared for measuring G0 value. The dosed plates were further incubated for 72 hours and the number of viable cells was measured by CellTiter-Glo® Luminescent Cell Viability Assay (Promega), a luminescent method for determining the number of viable cells through measurement of cellular ATP concentration using Envision plate reader (PerkinElmer). The percentage of proliferation was calculated as: % Proliferation = 100 × (G3 value of sample well - G0 value)/(G3 value of DMSO control - G0 value).

[9] = test system: WT EGFR cell line A-431; assay: Cell proliferation, WT EGFR A431 (CellTiter-Glo, 72 h); settings: Homo sapiens, A-431, 72 h;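 note: proliferation from a luminescent ATP viability signal, expressed as 100 × (treated minus time-zero plate) over (DMSO control minus time-zero plate), cells grown with 10% FBS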
[10] = target: T1, human EGFR exon 20 H773_V774insNPH (Homo sapiens, UniProt P00533, INS773NPH); assay: EGFR Exon20 NPH insertion cellular phosphorylation inhibition (MSD pEGFR Y1068/total EGFR); settings: Ba/F3 EGFR NPH ins cells, 4 h compound, p-EGFR(Y1068)/total EGFR;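 note: IL3-independent Ba/F3 cells with constitutively phosphorylated EGFR, compound exposure at 37 °C under 5% CO2, electrochemiluminescent MSD measurement of the p-EGFR to total EGFR ratio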
T1 construct: host or cells: Ba/F3

[11] = target: T2, human Her2 exon 20 insertion mutation YVMA (Homo sapiens, UniProt P04626, INS775YVMA); assay: Her2 Exon 20 YVMA insertion cellular phosphorylation inhibition (MSD p-Her2 Y1248/total Her2); settings: Her2 YVMAins cells, 4 h compound;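 note: lentivirally transduced NIH-3T3 cells in 1% FBS medium, electrochemiluminescent MSD read-out, graded compound concentrations at 37 °C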
T2 construct: expressed in transfected cells; host or cells: NIH-3T3, lentiviral transduction, puromycin selection

[12] = target: T3, human EGFR exon 20 V769_D770insASV (Homo sapiens, UniProt P00533, INS769ASV); assay: EGFR Exon20 ASV insertion cellular phosphorylation inhibition (MSD pEGFR Y1068/total EGFR); settings: Ba/F3 EGFR ASV ins cells, 4 h compound, p-EGFR(Y1068)/total EGFR;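 note: electrochemiluminescent readout on an MSD SECTOR Imager, IL3-independent transduced cells in medium with 1% FBS, compound concentration series at 37 °C and 5% CO2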
T3 construct: expressed in transfected cells; host or cells: Ba/F3 (DSMZ ACC-300), lentiviral transduction, puromycin selection, IL3 depletion

[13] = target: T4, EGFR L858R&T790M (Homo sapiens, UniProt P00533, L858R/T790M); assay: EGFR L858R and T790M cellular phosphorylation inhibition in NCI-H1975 (MSD); settings: NCI-H1975 cells, 4 h compound, p-EGFR(Y1068)/total EGFR; read-out: EGFR L858R and T790M mutation IC50;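 note: phosphorylated and total EGFR detected by electrochemiluminescence, cells exposed to compound in medium containing 1% FBS at 37 °C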
T4 construct: host or cells: NCI-H1975
Protocol: One day before the test, WT or mutant cells were seeded in 96 well plates at appropriate concentrations with corresponding growth media supplemented with 1% FBS, and incubated overnight. The next day, tested compounds at a series of concentrations were added into each individual well of the plates, and the plates were incubated for 4 h at 37° C. with 5% CO2.
The EGFR (Y1068) phosphorylation level (activity) of cells in each well were then measured with MSD kit named “MULTI-SPOT®96 4-Spot HB Prototype EGFR Triplex [sequence]: pEGFR(Tyr1068),pEGFR(Tyr1173), Total EGFR” according to the manufacturer’s instruction (MESO SCALE DISCOVERY, Cat# N45ZB-1). The assay is an electrochemiluminescent method for determining both phosphorylated and total EGFR of cells with an MSD SECTOR® Imager and the ratio of p-EGFR/total EGFR can be generated by the machine. The Her2 (Y1248) phosphorylation level (activity) of cells in each well were measured with MSD Kit named “Phospho-ErbB2 (Tyr1248) Assay Whole Cell Lysate Kit” according to the manufacturer’s instruction (MESO SCALE DISCOVERY, Cat# K151CLD-3). The assay is an electrochemiluminescent method (MESO SCALE DISCOVERY) for determining both phosphorylated and total Her2 of cells with an MSD SECTOR® Imager and then the ratio of p-Her2/total Her2 can be generated by the machine.

[14] = read-out: Her2 Exon 20 YVMA insertion GI50 (nM)
[15] = read-out: EGFR L858R and T790M mutation GI50 (nM)
[16] = read-out: EGFR Exon20 ASV insertion GI50 (nM)
[17] = read-out: EGFR Exon20 NPH insertion GI50 (nM)
[18] = read-out: EGFR WT A431 GI50 (nM)
[19] = Her2 YVMAins cells, 72 h proliferation, read-out: Her2 Exon 20 YVMA insertion GI50
[20] = NCI-H1975, 72 h proliferation, read-out: EGFR L858R and T790M mutation GI50
[21] = Ba/F3 EGFR ASV ins, 72 h proliferation, read-out: EGFR Exon20 ASV insertion GI50
[22] = TMD-8 cells, 72 h, CellTiter-Glo
[23] = Ba/F3 EGFR NPH ins, 72 h proliferation, read-out: EGFR Exon20 NPH insertion GI50
[24] = OCI-LY-10 cells, 72 h, CellTiter-Glo
[25] = Ri-1 cells, 72 h, CellTiter-Glo
[26] = A431, 72 h proliferation, read-out: EGFR WT A431 GI50

T1 sequence (P00533 with tags, fused parts or gaps INS773NPH): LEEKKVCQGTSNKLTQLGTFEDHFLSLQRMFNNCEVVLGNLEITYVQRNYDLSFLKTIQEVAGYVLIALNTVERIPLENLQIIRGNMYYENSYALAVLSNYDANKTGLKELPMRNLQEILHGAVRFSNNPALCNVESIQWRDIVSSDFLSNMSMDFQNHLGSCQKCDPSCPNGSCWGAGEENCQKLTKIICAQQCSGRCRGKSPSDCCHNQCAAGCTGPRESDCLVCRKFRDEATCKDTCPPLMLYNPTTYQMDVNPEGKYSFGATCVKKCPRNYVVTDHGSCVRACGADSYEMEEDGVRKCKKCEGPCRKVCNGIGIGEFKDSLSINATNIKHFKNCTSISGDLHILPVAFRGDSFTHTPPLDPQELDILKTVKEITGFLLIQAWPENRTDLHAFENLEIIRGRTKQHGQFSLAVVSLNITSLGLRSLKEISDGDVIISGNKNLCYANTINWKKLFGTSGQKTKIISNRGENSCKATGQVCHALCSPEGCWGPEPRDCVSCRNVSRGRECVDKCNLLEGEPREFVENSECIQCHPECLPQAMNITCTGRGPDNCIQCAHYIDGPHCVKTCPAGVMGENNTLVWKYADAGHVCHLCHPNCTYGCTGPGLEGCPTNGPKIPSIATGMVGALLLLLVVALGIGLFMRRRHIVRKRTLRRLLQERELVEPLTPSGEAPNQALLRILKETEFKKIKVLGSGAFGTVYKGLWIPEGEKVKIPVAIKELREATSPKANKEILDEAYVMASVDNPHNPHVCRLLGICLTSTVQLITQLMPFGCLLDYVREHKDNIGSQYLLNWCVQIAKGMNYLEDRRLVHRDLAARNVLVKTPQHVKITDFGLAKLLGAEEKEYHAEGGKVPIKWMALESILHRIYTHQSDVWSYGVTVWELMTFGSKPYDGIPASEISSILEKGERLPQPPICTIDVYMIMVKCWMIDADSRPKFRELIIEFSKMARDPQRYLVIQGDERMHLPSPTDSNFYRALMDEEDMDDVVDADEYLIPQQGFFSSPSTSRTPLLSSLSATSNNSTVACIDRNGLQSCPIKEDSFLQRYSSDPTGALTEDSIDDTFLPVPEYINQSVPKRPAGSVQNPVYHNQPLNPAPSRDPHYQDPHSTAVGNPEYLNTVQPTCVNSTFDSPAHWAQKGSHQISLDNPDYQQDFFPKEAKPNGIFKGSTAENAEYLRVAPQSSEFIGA
T2 sequence (P04626 with tags, fused parts or gaps INS775YVMA): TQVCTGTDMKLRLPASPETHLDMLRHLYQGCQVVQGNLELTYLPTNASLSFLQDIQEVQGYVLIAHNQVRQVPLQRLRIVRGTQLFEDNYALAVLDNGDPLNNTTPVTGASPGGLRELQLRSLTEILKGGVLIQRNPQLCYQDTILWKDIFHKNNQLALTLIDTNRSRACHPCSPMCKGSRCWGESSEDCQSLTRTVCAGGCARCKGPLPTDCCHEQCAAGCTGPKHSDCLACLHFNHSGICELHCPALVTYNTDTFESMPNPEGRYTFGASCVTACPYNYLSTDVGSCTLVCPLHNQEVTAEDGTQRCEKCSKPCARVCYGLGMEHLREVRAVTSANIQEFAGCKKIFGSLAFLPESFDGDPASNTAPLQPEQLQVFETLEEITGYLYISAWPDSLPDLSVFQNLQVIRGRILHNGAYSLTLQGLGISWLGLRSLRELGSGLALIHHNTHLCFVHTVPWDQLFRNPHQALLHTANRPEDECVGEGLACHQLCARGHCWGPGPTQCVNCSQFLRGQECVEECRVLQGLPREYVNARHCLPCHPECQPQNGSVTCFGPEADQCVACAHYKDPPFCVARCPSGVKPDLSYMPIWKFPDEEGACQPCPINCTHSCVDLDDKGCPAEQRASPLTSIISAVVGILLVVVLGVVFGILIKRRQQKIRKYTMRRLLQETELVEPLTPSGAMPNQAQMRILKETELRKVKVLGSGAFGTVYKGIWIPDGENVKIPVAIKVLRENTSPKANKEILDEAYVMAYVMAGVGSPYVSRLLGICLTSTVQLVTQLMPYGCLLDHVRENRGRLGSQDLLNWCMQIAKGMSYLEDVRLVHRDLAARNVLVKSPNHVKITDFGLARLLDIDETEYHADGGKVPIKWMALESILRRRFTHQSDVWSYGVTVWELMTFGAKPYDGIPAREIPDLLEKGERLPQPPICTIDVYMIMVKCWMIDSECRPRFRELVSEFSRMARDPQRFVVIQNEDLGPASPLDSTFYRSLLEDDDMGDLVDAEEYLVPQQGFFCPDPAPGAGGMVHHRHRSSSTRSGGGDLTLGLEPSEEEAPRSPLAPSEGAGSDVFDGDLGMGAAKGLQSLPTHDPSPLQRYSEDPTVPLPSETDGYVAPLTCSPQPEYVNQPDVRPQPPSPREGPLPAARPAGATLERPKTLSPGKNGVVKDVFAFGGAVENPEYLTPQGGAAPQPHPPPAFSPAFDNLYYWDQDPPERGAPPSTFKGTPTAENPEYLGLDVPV
T3 sequence (P00533 with tags, fused parts or gaps INS769ASV): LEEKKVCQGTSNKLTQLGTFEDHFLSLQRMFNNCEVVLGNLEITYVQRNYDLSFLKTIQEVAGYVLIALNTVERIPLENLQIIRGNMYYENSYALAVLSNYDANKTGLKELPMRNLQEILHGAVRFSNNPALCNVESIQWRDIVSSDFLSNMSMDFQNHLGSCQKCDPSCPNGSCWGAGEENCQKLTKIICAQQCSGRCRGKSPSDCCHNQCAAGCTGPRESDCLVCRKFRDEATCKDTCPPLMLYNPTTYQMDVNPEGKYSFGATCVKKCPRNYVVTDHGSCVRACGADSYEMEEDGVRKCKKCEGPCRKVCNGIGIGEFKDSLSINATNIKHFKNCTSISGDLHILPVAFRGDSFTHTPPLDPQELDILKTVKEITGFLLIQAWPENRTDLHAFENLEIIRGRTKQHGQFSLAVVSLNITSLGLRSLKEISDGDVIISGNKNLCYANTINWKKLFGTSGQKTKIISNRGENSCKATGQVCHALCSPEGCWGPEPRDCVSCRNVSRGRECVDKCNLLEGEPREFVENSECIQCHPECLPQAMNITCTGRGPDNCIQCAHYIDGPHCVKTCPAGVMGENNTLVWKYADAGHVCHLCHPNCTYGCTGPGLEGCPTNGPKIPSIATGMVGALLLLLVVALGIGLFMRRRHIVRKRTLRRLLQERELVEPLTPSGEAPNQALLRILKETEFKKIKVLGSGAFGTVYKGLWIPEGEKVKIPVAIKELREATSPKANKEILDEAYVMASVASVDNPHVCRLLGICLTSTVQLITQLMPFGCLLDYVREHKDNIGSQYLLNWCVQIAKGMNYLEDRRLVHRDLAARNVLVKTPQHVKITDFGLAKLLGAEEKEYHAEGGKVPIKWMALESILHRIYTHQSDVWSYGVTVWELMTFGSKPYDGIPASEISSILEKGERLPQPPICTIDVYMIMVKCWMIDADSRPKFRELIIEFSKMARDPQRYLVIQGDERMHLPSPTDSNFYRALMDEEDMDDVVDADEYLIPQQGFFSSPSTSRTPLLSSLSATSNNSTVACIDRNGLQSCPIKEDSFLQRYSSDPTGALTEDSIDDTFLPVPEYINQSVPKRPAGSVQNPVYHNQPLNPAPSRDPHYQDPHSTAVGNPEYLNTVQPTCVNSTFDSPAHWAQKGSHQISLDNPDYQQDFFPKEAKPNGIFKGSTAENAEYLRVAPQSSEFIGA
T4 sequence (P00533 25-1210 T790M/L858R): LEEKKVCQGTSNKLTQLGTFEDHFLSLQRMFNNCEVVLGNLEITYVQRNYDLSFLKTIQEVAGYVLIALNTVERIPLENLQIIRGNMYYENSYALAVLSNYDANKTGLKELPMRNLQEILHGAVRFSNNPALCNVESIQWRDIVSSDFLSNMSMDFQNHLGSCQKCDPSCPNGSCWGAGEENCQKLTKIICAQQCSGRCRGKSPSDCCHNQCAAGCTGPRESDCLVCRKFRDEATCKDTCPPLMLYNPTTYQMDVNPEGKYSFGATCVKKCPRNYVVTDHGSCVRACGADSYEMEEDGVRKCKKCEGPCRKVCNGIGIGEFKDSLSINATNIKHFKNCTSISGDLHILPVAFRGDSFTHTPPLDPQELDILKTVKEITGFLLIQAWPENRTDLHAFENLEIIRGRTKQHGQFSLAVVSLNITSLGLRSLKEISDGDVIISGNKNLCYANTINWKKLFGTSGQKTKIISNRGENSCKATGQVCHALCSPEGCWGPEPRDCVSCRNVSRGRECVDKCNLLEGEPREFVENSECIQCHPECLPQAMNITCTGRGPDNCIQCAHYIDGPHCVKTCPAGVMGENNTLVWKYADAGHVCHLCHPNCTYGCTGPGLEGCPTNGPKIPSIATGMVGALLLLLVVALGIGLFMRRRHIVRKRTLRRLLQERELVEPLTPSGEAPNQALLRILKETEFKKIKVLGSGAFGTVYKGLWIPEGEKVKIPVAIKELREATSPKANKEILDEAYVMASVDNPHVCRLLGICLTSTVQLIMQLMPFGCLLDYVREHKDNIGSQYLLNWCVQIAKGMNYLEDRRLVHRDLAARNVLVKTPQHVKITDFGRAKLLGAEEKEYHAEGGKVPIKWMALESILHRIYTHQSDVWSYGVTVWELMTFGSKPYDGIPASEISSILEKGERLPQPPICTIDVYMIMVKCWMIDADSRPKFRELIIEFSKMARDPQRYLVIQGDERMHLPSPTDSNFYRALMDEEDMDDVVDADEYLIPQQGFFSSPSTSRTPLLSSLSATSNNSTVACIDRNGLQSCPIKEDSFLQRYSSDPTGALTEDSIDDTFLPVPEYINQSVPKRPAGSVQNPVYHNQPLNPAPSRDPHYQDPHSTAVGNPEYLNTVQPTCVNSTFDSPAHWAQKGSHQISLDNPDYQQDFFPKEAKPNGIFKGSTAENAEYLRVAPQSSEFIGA

| GI50 [3, 20] [nM] | GI50 [4, 21] [nM] | IC50 [10] [nM] | IC50 [11] [nM] | GI50 [6, 23] [nM] | GI50 [7, 24] [nM] | GI50 [9, 26] [nM] | IC50 [12] [nM] | Structure (SMILES) | GI50 ([1]; DB cells, CellTiter-Glo) [nM] | GI50 [2, 19] [nM] | GI50 [5, 22] [nM] | GI50 [8, 25] [nM] | further results |
| --- | --- | --- | --- | --- | --- | --- | --- | --- | --- | --- | --- | --- | --- |
| – | – | – | – | – | – | – | – | C=CC(=O)Nc1cc(Nc2nccc(-c3cn(C)c4ccccc34)n2)c(OC)cc1N(C)CCN(C)C [AZD9291, osimertinib, reference compound] | – | – | – | – | GI50 [1]: 1020 nM; GI50 [2, 14]: 294 nM; GI50 [3, 15]: 14.5 nM; GI50 [4, 16]: 207 nM; GI50 [5]: 1090 nM; GI50 [6, 17]: 177 nM; GI50 [7]: 1040 nM; GI50 [8]: 2050 nM; GI50 [9, 18]: 43.7 nM |
| – | – | – | – | – | – | – | – | CN(C)C/C=C/C(=O)Nc1cc2c(Nc3ccc(F)c(Cl)c3)ncnc2cc1O[C@H]1CCOC1 [Afatinib, reference compound] | – | – | – | – | GI50 [1]: 657 nM; GI50 [2, 14]: 17.8 nM; GI50 [5]: 1160 nM; GI50 [7]: 1040 nM; GI50 [8]: 1030 nM |
| 93.7 | 250 | 381 | 97.3 | 625 | 210 | 64.7 | 191 | C=CC(=O)Nc1cc(Nc2ncnc(Nc3cnc(C)cc3C(C)(C)O)n2)c(OC)cc1N(C)CCN(C)C [Compound 6, N-(2-((2-(dimethylamino)ethyl)(methyl)amino)-5-(4-(4-(2-hydroxypropan-2-yl)-6-methylpyridin-3-ylamino)-1,3,5-triazin-2-ylamino)-4-methoxyphenyl) acrylamide] | > 3000 | 534 | 335 | 289 | – |
| 25 | 145 | 46.6 | 19.7 | 212 | 130 | 37.9 | 40.5 | C=CC(=O)Nc1cc(Nc2ncnc(Nc3ccc(C)nc3C(C)(C)O)n2)c(OC)cc1N(C)CCN(C)C [Compound 7, N-(2-((2-(dimethylamino)ethyl)(methyl)amino)-5-(4-(2-(2-hydroxypropan-2-yl)-6-methylpyridin-3-ylamino)-1,3,5-triazin-2-ylamino)-4-methoxyphenyl) acrylamide] | > 3000 | 161 | 188 | > 3000 | – |
| 76.3 | 198 | 119 | 231 | 189 | > 3000 | 79.4 | 73.4 | C=CC(=O)Nc1cc(Nc2ncnc(Nc3ccccc3C3(O)COC3)n2)c(OC)cc1N(C)CCN(C)C [Compound 10, N-(2-((2-(dimethylamino)ethyl)(methyl)amino)-5-(4-(2-(3-hydroxyoxetan-3-yl)phenylamino)-1,3,5-triazin-2-ylamino)-4-methoxyphenyl)acrylamide] | > 3000 | 274 | > 3000 | > 3000 | – |
| 15.3 | 53.3 | 40.1 | 36.4 | 76.5 | 54.5 | 22.5 | 22.9 | C=CC(=O)Nc1cc(Nc2ncnc(Nc3ccc(C(F)(F)F)cc3C(C)(C)O)n2)c(OC)cc1N(C)CCN(C)C [Compound 13, N-(2-((2-(dimethylamino)ethyl)(methyl)amino)-5-(4-(2-(2-hydroxypropan-2-yl)-4-(trifluoromethyl)phenylamino)-1,3,5-triazin-2-ylamino)-4-methoxyphenyl)acrylamide] | > 3000 | 156 | 56.3 | 120 | – |
| 23 | 101 | 65 | 49 | 142 | 324 | 55.5 | 30 | C=CC(=O)Nc1cc(Nc2ncnc(Nc3cc(F)c(F)cc3C(C)(C)O)n2)c(OC)cc1N(C)CCN1CCCCC1 [Compound 24] | > 3000 | 303 | 107 | 415 | – |
| 1.4 | 35.7 | – | 19.7 | 60 | 6.2 | 21.5 | – | C=CC(=O)Nc1cc(Nc2ncc(Cl)c(Nc3cc(Cl)c(F)cc3C(C)(C)O)n2)c(OC)cc1N(C)CCN(C)C [Compound 78, N-(5-(5-chloro-4-(5-chloro-4-fluoro-2-(2-hydroxypropan-2-yl)phenylamino)pyrimidin-2-ylamino)-2-((2-(dimethylamino)ethyl)(methyl)amino)-4-methoxyphenyl)acrylamide] | > 3000 | 49.2 | 10.3 | 77.8 | – |
| 4.6 | 149 | 81.5 | 303 | 136 | – | 35.7 | – | C=CC(=O)Nc1cc(Nc2ncc(OC)c(Nc3cc(Cl)c(F)cc3C(C)(C)O)n2)c(OC)cc1N(C)CCN(C)C [Compound 81, N-(5-(4-(5-chloro-4-fluoro-2-(2-hydroxypropan-2-yl)phenylamino)-5-methoxypyrimidin-2-ylamino)-2-((2-(dimethylamino)ethyl)(methyl)amino)-4-methoxyphenyl)acrylamide] | – | 354 | – | – | IC50 [13]: 1.1 nM |
| 42.5 | 502 | – | 116 | 491 | 235 | 265 | – | Cc1cc(C(=O)Nc2nc3cccc(Cl)c3n2[C@@H]2CCCCN(C(=O)/C=C/CN(C)C)C2)ccn1 [EGF816, reference compound] | > 3000 | 242 | 166 | 897 | – |
| – | – | – | – | – | – | – | – | CCOc1cc2ncc(C#N)c(Nc3ccc(OCc4ccccn4)c(Cl)c3)c2cc1NC(=O)/C=C/CN(C)C [Neratinib, reference compound] | – | – | – | – | GI50 [2, 14]: 5.2 nM; GI50 [3, 15]: 110 nM; GI50 [4, 16]: 88 nM; GI50 [6, 17]: 700 nM; GI50 [9, 18]: 15.9 nM |
| 19.4 | 4.1 | – | 0.8 | 7.2 | 1000 | 0.5 | – | C=CC(=O)N1CCC(Oc2cc3c(Nc4ccc(Cl)c(Cl)c4F)ncnc3cc2OC)CC1 [Poziotinib, reference compound] | > 3000 | 4.7 | 2410 | 1230 | – |

| Structure (SMILES) | GI50 [3, 20] [nM] | GI50 [4, 21] [nM] | IC50 [10] [nM] | IC50 [11] [nM] | GI50 [6, 23] [nM] | GI50 [7, 24] [nM] | GI50 [9, 26] [nM] | IC50 [12] [nM] | GI50 ([1]; DB cells, CellTiter-Glo) [nM] | GI50 [2, 19] [nM] | GI50 [5, 22] [nM] | GI50 [8, 25] [nM] | further results |
| --- | --- | --- | --- | --- | --- | --- | --- | --- | --- | --- | --- | --- | --- |
| C=CC(=O)Nc1cc(Nc2nccc(Nc3cc(Cl)c(F)cc3C(C)(C)O)n2)c(OC)cc1N(C)C[C@H]1C[C@H](C)CN1C [Compound 90, N-(5-(4-(5-chloro-4-fluoro-2-(2-hydroxypropan-2-yl)phenylamino)pyrimidin-2-ylamino)-2-((((2R,4S)-1,4-dimethylpyrrolidin-2-yl)methyl)(methyl)amino)-4-methoxyphenyl) acrylamide formic acid salt] | – | – | 30.8 | 27.6 | – | 82.7 | – | 57.2 | > 3000 | 284 | 45 | 83.8 | GI50 [3, 15]: 6.1 nM; GI50 [4, 16]: 83.1 nM; GI50 [6, 17]: 76.4 nM; GI50 [9, 18]: 59.4 nM |
